From US20210122730A1, “GLUCOCORTICOID RECEPTOR MODULATORS” (ORIC Pharmaceuticals, Inc., priority 2017, published 2021) come the findings set out here.

One series addresses T1, GR (Homo sapiens, UniProt P04150).
T1 construct: expressed in transfected cells; host or cells: CHO-K1
T1 sequence (P04150 1-777): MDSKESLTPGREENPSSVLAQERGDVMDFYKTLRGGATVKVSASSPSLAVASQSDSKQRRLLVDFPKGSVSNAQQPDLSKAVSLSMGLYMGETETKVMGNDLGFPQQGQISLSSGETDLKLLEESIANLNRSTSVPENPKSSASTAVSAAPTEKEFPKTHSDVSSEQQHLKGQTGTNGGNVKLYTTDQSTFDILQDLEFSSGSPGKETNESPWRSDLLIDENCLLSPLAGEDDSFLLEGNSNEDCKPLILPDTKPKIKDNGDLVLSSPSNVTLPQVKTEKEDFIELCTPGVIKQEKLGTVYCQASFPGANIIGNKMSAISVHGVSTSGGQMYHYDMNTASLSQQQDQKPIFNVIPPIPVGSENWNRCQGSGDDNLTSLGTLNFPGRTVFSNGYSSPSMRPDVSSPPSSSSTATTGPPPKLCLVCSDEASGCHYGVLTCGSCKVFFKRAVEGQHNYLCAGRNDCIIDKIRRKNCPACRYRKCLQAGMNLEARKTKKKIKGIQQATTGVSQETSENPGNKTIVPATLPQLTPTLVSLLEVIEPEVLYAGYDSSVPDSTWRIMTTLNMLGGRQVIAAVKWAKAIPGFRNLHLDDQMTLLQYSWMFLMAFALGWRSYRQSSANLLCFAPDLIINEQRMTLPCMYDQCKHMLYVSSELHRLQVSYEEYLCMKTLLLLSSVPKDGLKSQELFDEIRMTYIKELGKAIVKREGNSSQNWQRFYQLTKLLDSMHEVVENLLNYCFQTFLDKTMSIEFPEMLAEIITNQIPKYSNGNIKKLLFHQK
Kind of series: In Vitro GR Luciferase Reporter Assay (antagonist mode, CHO-K1-GR-MMTV-Luc reporter cells). To be noted: antagonist mode, 10 nM Dexamethasone. It is filed as cell-based. In short, it runs like this:
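Antagonist mode: compounds (8 serial 1:5 dilutions) added to GR-MMTV-luciferase CHO-K1 reporter cells co-exposed to 10 nM dexamethasone final, in phenol red-free DMEM plus 10% CSS. After roughly 18-24 h at 37° C, OneGlo luminescence read and IC50 calculated.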
(In general: Reporter assays use an easily measured gene product as a stand-in for the process of interest.)

The target in the next series is T2, CYP2C8 (Homo sapiens, UniProt P10632).
T2 construct: Pooled human microsomes were obtained from Sekisui XenoTech, KS; tissue Sekisui XenoTech, KS; host or cells: pooled human liver microsomes
T2 sequence (P10632 1-490): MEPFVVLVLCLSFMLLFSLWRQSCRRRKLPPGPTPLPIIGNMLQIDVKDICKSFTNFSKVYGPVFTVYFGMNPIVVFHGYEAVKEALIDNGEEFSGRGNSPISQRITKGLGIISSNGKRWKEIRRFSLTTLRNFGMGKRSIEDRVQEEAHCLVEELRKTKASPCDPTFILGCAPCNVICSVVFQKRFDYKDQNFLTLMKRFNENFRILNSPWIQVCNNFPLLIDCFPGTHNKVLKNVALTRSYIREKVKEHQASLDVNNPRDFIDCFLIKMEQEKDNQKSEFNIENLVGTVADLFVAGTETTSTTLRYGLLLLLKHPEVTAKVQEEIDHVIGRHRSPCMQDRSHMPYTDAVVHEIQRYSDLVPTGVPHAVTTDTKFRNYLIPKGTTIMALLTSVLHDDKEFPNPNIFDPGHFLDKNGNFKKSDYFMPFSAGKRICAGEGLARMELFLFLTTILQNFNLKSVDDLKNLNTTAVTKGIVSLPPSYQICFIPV
In words: CYP Inhibition Assay (CYP2C8, human liver microsomes, paclitaxel substrate). It is filed as in vitro ADME. To be noted: pH 7.4; pooled human liver microsomes 0.1 mg/mL, probe substrate paclitaxel. As for the experimental part:
Example B: CYP Inhibition Assay
Objective: To assess the % inhibition of test compounds against CYP2C8 enzyme in human liver microsomes.
Pooled human microsomes were obtained from Sekisui XenoTech, KS, and were used for in vitro assessment of compound inhibitory potential of the major drug metabolizing human CYP enzymes.
Test compounds were dissolved in DMSO as 10 mM stock solutions and diluted to 200 µM in acetonitrile as working solutions. The total concentrations of DMSO and acetonitrile were 0.02% and 0.5%, respectively, in the assay.
The assay was performed in duplicate in a 96-well plate. The reaction mixture ([…]) containing a final concentration of 0.1 mg/mL pooled human liver microsomes, 50 mM potassium phosphate, pH 7.4 buffer, was re-warmed at 37° C. for 5 minutes. The reaction was initiated with NADPH solution which was at 1 mM final concentration, and carried out for 5 minutes at 37° C. It was terminated by the addition of 3-fold volume of quench solution (1:1 acetonitrile:methanol with 0.1% formic acid and the internal standard of tolbutamide). The sample was vortexed, centrifuged at 4,000 rpm for 15 min at 4° C. The incubation in the presence of vehicle (0.02% DMSO and 0.5% acetonitrile) was used as the enzyme activity control. The analyses of metabolite 6α-hydroxypaclitaxel in supernatant was performed with LC-MS/MS method (Sciex API 4500 Qtrap coupled to a Shimadzu LC-20AD HPLC).
The CYP enzyme activity was determined based on the formation of 6a-hydroxypaclitaxel metabolite. The % inhibition was calculated using this equation: % Inhibition=100×(1−Ainactivator/Avehicle), where Ainactivator is the CYP enzyme activity in the presence of test compound, and Avehicle is the CYP activity in the presence of vehicle.

`CN([C@H]1CCC2=Cc3c(cnn3-c3ccc(F)cc3)C[C@]2(C(=O)c2cc(C(F)(F)F)ccn2)C1)S(=O)(=O)c1ccnn1C` [Example 156, N-((4aS,6S)-1-(4-fluorophenyl)-4a-(4-(trifluoromethyl)picolinoyl)-4,4a,5,6,7,8-hexahydro-1H-benzo[f]indazol-6-yl)-N,1-dimethyl-1H-pyrazole-5-sulfonamide] yielded an IC50 on GR of at most 0.1 µM. Moreover, the inhibition at 5 min against CYP2C8 was 75 to 90%.
`Cn1ccc(S(=O)(=O)N(C2CC2)[C@H]2CCC3=Cc4c(cnn4-c4ccc(F)cc4)C[C@]3(C(=O)c3ncc(C4CC4)s3)C2)n1` [Example 160, N-cyclopropyl-N-((4aS,6S)-4a-(5-cyclopropylthiazole-2-carbonyl)-1-(4-fluorophenyl)-4,4a,5,6,7,8-hexahydro-1H-benzo[f]indazol-6-yl)-1-methyl-1H-pyrazole-3-sulfonamide]: on GR, the concentration for half-maximal inhibition (IC50) is at most 0.1 µM. The same molecule showed an inhibition at 5 min at CYP2C8 of 50 to 75%.
On to `Cn1ccc(S(=O)(=O)N(C2CC2)[C@H]2CCC3=Cc4c(cnn4-c4ccc(F)cc4)C[C@]3(C(=O)c3ncc(C(F)(F)F)s3)C2)n1` [Example 164, N-cyclopropyl-N-((4aS,6S)-1-(4-fluorophenyl)-4a-(5 (trifluoromethyl)thiazole-2-carbonyl)-4,4a,5,6,7,8-hexahydro-1H-benzo[f]indazol-6-yl)-1-methyl-1H-pyrazole-3-sulfonamide], for which the half-maximal inhibitory concentration (IC50) on GR is at most 0.1 µM. Moreover, the inhibition at 5 min at CYP2C8 lay in the range of 50 to 75%.
On to `CCN([C@H]1CCC2=Cc3c(cnn3-c3ccc(F)cc3)C[C@]2(C(=O)c2cc(C(F)(F)F)ccn2)C1)S(=O)(=O)c1cnn(C(F)F)c1` [Example 166, 1-(difluoromethyl)-N-ethyl-N-((4aS,6S)-1-(4-fluorophenyl)-4a-(4-(trifluoromethyl)picolinoyl)-4,4a,5,6,7,8-hexahydro-1H-benzo[f]indazol-6-yl)-1H-pyrazole-4-sulfonamide], for which the half-maximal inhibitory concentration (IC50) against GR is at most 0.1 µM. Also, the inhibition at 5 min against CYP2C8 lay within 25 to 50%.
For `CN([C@H]1CCC2=Cc3c(cnn3-c3ccc(F)cc3)C[C@]2(C(=O)c2cc(C(F)(F)F)ccn2)C1)S(=O)(=O)c1cn(C)nn1` [Example 170, N-((4aS,6S)-1-(4-fluorophenyl)-4a-(4-(trifluoromethyl)picolinoyl)-4,4a,5,6,7,8-hexahydro-1H-benzo[f]indazol-6-yl)-N,1-dimethyl-1H-1,2,3-triazole-4-sulfonamide], the IC50 at GR is at most 0.1 µM. The molecule also registered an inhibition at 5 min against CYP2C8 of at most 25%.
Molecule `Cn1cc(S(=O)(=O)N(C2CC2)[C@H]2CCC3=Cc4c(cnn4-c4ccc(F)cc4)C[C@]3(C(=O)c3ncc(C(F)(F)F)s3)C2)cn1` [Example 176, N-cyclopropyl-N-((4aS,6S)-1-(4-fluorophenyl)-4a-(5 (trifluoromethyl)thiazole-2-carbonyl)-4,4a,5,6,7,8-hexahydro-1H-benzo[f]indazol-6-yl)-1-methyl-1H-pyrazole-4-sulfonamide] came in with an IC50 on GR of at most 0.1 µM. The same molecule had an inhibition at 5 min against CYP2C8 of 25 to 50%.
`Cn1ccc(S(=O)(=O)N(CC2CC2)[C@H]2CCC3=Cc4c(cnn4-c4ccc(F)cc4)C[C@]3(C(=O)c3cc(C(F)(F)F)ccn3)C2)n1` [Example 178, N-(cyclopropylmethyl)-N-((4aS,6S)-1-(4-fluorophenyl)-4a-(4-(trifluoromethyl)picolinoyl)-4,4a,5,6,7,8-hexahydro-1H-benzo[f]indazol-6-yl)-1-methyl-1H-pyrazole-3-sulfonamide]: the IC50 against GR was at most 0.1 µM. The molecule further yielded an inhibition at 5 min on CYP2C8 of 25 to 50%.
As for `CC(C)N([C@H]1CCC2=Cc3c(cnn3-c3ccc(F)cc3)C[C@]2(C(=O)c2ncc(C(F)(F)F)s2)C1)S(=O)(=O)c1ccn(C)n1` [Example 182, N-((4aS,6S)-1-(4-fluorophenyl)-4a-(5-(trifluoromethyl)thiazole-2-carbonyl)-4,4a,5,6,7,8-hexahydro-1H-benzo[f]indazol-6-yl)-N-isopropyl-1-methyl-1H-pyrazole-3-sulfonamide], on GR, the IC50 was at most 0.1 µM. The molecule also yielded an inhibition at 5 min on CYP2C8 of 50 to 75%.
The molecule `Cn1ncc(S(=O)(=O)N(C2CC2)[C@H]2CCC3=Cc4c(cnn4-c4ccc(F)cc4)C[C@]3(C(=O)c3ncc(C(F)(F)F)s3)C2)n1` [Example 183, N-cyclopropyl-N-((4aS,6S)-1-(4-fluorophenyl)-4a-(5 (trifluoromethyl)thiazole-2-carbonyl)-4,4a,5,6,7,8-hexahydro-1H-benzo[f]indazol-6-yl)-2-methyl-2H-1,2,3-triazole-4-sulfonamide] gave an IC50 on GR of at most 0.1 µM. At CYP2C8, this molecule came in with an inhibition at 5 min of 25 to 50%.
In turn, `Cn1ccc(S(=O)(=O)N(CC(F)(F)F)[C@H]2CCC3=Cc4c(cnn4-c4ccc(F)cc4)C[C@]3(C(=O)c3ncc(C(F)(F)F)s3)C2)n1` [Example 184, N-((4aS,6S)-1-(4-fluorophenyl)-4a-(5-(trifluoromethyl)thiazole-2-carbonyl)-4,4a,5,6,7,8-hexahydro-1H-benzo[f]indazol-6-yl)-1-methyl-N-(2,2,2-trifluoroethyl)-1H-pyrazole-3-sulfonamide] had an IC50 on GR of at most 0.1 µM. On CYP2C8, the inhibition at 5 min lay in the range of 25 to 50%.
For `Cn1ccc(S(=O)(=O)N(CC(C)(C)O)[C@H]2CCC3=Cc4c(cnn4-c4ccc(F)cc4)C[C@]3(C(=O)c3ncc(C(F)(F)F)s3)C2)n1` [Example 189, N-((4aS,6S)-1-(4-fluorophenyl)-4a-(5-(trifluoromethyl)thiazole-2-carbonyl)-4,4a,5,6,7,8-hexahydro-1H-benzo[f]indazol-6-yl)-N-(2-hydroxy-2-methylpropyl)-1-methyl-1H-pyrazole-3-sulfonamide] the same measures were at most 0.1 µM and 50 to 75%.
At GR, `CC(C)N([C@H]1CCC2=Cc3c(cnn3-c3ccc(F)cc3)C[C@]2(C(=O)c2ncc(C(F)(F)F)s2)C1)S(=O)(=O)c1cnn(C)c1` [Example 191, N-((4aS,6S)-1-(4-fluorophenyl)-4a-(5-(trifluoromethyl)thiazole-2-carbonyl)-4,4a,5,6,7,8-hexahydro-1H-benzo[f]indazol-6-yl)-N-isopropyl-1-methyl-1H-pyrazole-4-sulfonamide] returned an IC50 of at most 0.1 µM. Moreover, the inhibition at 5 min against CYP2C8 lay in the range of 25 to 50%.
On GR, `CC(C)N([C@H]1CCC2=Cc3c(cnn3-c3ccc(F)cc3)C[C@]2(C(=O)c2cc(C(F)(F)F)ccn2)C1)S(=O)(=O)c1cnn(C)c1` [Example 193, N-((4aS,6S)-1-(4-fluorophenyl)-4a-(4-(trifluoromethyl)picolinoyl)-4,4a,5,6,7,8-hexahydro-1H-benzo[f]indazol-6-yl)-N-isopropyl-1-methyl-1H-pyrazole-4-sulfonamide] showed a half-maximal inhibitory concentration (IC50) of at most 0.1 µM. The inhibition at 5 min against CYP2C8 fell in the range of 50 to 75%.

In general, IC50 refers to the midpoint of a concentration-inhibition curve. A lower IC50 goes with inhibition by little substance. The term inhibition denotes the change of the read-out against control, counted positive when it falls. A higher inhibition goes with a response far below the control.
